The results in this text go back to US8034574B2, “Screening method for prokinetic agent” (Astellas Pharma Inc., priority 2006, dated 2011).

In assay [1] the test system is RIN14B cells. In words: Serotonin secretion from RIN14B cells (immunoassay). Type of assay: cell-based, rat. The note with it: for serotonin secretion from RIN14B cells: 20 minutes culture. The method, then: After RIN14B cells in culture in a Petri dish were detached using a PBS containing 1 mM EDTA, they were sown to a 96-well plate and cultured for 2 days. The medium used was RPMI1640 (Invitrogen Japan K.K.) supplemented with 10% fetal bovine serum (ICN), 100 U/ml penicillin, and 100 μg/ml streptomycin. After the cells were once washed with Hanks' Balanced Salt Solutions (HBSS, Invitrogen) supplemented with 0.1% BSA and 10 μM fluoxetine (TOCRIS), each TRPA1 activator, previously diluted/prepared with the above-described HBSS, was added, and the RIN14B cells were cultured at 37° C. in the presence of 5% CO2 for 20 minutes. After the cultivation, the cell supernatant was recovered, and stored under freezing. The serotonin content in the supernatant was measured using a commercially available serotonin immunoassay kit (Beckman).

Assay [2] deals with RIN14B cells. Kind of assay: Channel activity in RIN14B cells using calcium-sensitive fluorescent reagent (FLIPR). The assay is classed as cell-based, rat. As to conditions: for elevation of fluorescence intensity (calcium inflow) in RIN14B cells: Fluo3-AM. As to the method: RIN14B cells (5×10^4 cells), wherein the expression of TRPA1 was confirmed in Example 10, were incubated in the presence of a calcium-sensitive fluorescent reagent (Fluo3-AM; DOJINDO) at 37° C. for 1 hour to thereby incorporate the calcium-sensitive fluorescent reagent in the cells, after which the cells were washed with physiological saline to remove the calcium-sensitive fluorescent reagent that had not been incorporated in the cells. To the cells obtained, physiological saline supplemented with allyl isothiocyanate, cinnamic aldehyde, or acrolein was added; the fluorescence emitted by the cells was measured over time. The above-described measurements were performed using an automated fluorescence detection apparatus (FLIPR; Molecular Device). […] Ruthenium Red was added concurrently and a measurement was performed to determine whether or not calcium inflow in the cells was be inhibited.

The target of assay [3] is T1, human TRPA1 (polypeptide of SEQ ID NO:2) (Homo sapiens, UniProt O75762, K186N/R3C/R58T).
T1 construct: expressed in transfected cells; host or cells: CHO-K1 cells, transient transfection of the pcDNA3.1(+) human TRPA1 vector
T1 sequence (O75762 whole entry R3C/R58T/K186N): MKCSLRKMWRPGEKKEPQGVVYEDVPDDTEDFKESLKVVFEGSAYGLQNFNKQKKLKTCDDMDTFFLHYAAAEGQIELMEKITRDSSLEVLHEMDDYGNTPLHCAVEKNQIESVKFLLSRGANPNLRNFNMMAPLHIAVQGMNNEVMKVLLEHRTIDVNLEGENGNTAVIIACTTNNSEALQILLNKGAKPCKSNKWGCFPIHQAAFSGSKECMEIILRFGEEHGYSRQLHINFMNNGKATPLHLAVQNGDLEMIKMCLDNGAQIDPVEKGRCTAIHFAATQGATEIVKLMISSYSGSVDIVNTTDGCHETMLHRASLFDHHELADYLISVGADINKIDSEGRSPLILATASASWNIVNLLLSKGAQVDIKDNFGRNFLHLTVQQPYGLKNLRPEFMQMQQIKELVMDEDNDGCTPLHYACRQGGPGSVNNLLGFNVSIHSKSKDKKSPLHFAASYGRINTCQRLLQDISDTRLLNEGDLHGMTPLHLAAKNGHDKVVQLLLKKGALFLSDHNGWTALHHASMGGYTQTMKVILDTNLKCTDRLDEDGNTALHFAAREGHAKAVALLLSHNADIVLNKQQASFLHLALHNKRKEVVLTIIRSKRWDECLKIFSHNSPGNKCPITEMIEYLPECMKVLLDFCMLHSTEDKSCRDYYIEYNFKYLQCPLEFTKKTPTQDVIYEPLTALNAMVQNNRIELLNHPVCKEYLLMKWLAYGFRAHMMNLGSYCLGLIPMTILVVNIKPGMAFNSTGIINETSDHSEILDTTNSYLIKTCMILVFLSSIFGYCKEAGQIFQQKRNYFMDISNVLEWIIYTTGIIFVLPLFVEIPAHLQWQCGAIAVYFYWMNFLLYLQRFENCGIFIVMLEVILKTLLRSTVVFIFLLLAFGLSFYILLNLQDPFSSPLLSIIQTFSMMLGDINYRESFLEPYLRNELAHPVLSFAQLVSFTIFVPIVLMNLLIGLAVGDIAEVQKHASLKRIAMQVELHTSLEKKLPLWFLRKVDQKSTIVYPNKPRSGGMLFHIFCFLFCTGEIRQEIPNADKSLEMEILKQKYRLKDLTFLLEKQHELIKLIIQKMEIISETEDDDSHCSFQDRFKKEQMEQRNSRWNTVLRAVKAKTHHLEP
In words: TRPA1 inhibitor screening by FLIPR, calcium inflow after addition of cinnamic aldehyde. Type of assay: cell-based. As to conditions: read-out: inhibitory activity on the polypeptide of SEQ ID NO:2 in terms of IC50. As to the method:
To measure the changes in intracellular calcium concentration by FLIPR, the following pre-treatment was performed. First, an assay buffer for adding the fluorescent dye Fluo3-AM (DOJIN) to the cells, or for washing the cells just before performing the FLIPR assay, was prepared. To a solution prepared by adding 20 ml of 1M HEPES (pH 7.4) (Invitrogen) to 1000 ml of HBSS (Invitrogen) (hereinafter, HBSS/HEPES solution), 10 ml of a solution prepared by dissolving 710 mg of probenecid (Sigma) in 5 ml of 1N NaOH and then adding 5 ml of the HBSS/HEPES solution, was added and mixed, and this solution was used as the assay buffer. […] After this pretreatment was performed, changes in intracellular calcium concentration after addition of the various test samples were measured with the FLIPR.
Compounds that inhibit a polypeptide consisting of the amino acid sequence shown by SEQ ID NO:2 (inhibitor) were screened for. Inhibitory activity was measured by performing detection of calcium inflow in the cells using a calcium-sensitive fluorescent reagent; specifically, the method described in Example 3 was used with a modification. […]

Assay [4] has as its system guinea pig ileum. In words: Isolated guinea pig gut constriction (Magnus, ileum). The note with it: for EC50: Cavia porcellus, read-out: EC50(μM) †; for Action: Magnus (guinea pig ileum); for suppression of contraction upon stimulation with acrolein by serotonin receptor antagonists: acrolein 300 μM, pizotifen maleate 10 μM, ramosetron hydrochloride 0.3 μM, vs vehicle. As to the method: Guinea pigs (Hartley strain, male, weighing 300-400 g), under ether anesthesia, were exsanguinated to death by cutting the carotid artery. The ileum was extirpated, about 15-cm portions at both ends were removed, a section 1.5 cm long was cut out from the remaining portion, and incisions were made longitudinally parallelly in the gut to prepare a tabular specimen. This specimen was sandwiched with serrefine at both ends, and suspended with a thread in a Magnus chamber containing 10 ml of a 37° C. Krebs solution (118 mM NaCl, 4.7 mM KCl, 2.5 mM CaCl2, 1.2 mM MgSO4, 1.2 mM KH2PO4, 11 mM D-glucose, 20 mM NaHCO3) aerated with 95% O2-5% CO2 mixed gas. A 1-g load was applied to the specimen, buffers were exchanged at 15-minute intervals, and the specimen was allowed to stand for about 60 minutes to stabilize its tension. Changes in the tension in response to agonist stimulation were measured isometrically, and recorded on a recorder. Acetylcholine, 10^−5 M, was administered to induce contraction of the ileum specimen; after the contraction maximized, the bath was washed three times to purge out the acetylcholine. This operation was repeated at 10-minute intervals, and after the induced contraction stabilized two consecutive times, each test substance was administered. By comparing the contractile forces produced by acetylcholine and the test substance, the effect of the test substance was evaluated. One specimen was investigated only at one concentration of the test substance. […] From the results above, it was shown that the TRPA1 activator induced gut contraction.
The serotonin receptor antagonists used were pizotifen maleate (10 μM), a 5-HT1,2 receptor antagonist, ketanserin tartrate (0.1 μM), a 5-HT2 receptor antagonist, ramosetron hydrochloride (0.3 μM), a 5-HT3 receptor antagonist, and GR113808 (0.3 μM), a 5-HT4 receptor antagonist.
The inhibitory actions of various serotonin receptor antagonists on contraction upon stimulation with acrolein (300 μM) were investigated in the same manner. […] From the results above, it was shown that serotonin was released upon stimulation with acrolein to induce contraction via serotonin receptors such as 5-HT1 receptor and 5-HT3 receptor.

Assay [5] deals with CHO-K1 cells not expressing the polypeptide shown by SEQ ID NO:2. Kind of assay: Intracellular calcium by FLIPR in negative control CHO-K1 cells. Type of assay: cell-based. The note with it: CHO-K1 cells not expressing TRPA1. Background: Calcium assays in cells follow changes in intracellular calcium, usually with a dye or a luminescent sensor.
Assay [6] deals with T1, human TRPA1 (polypeptide of SEQ ID NO:2). In words: Intracellular calcium by FLIPR in CHO-K1 cells expressing human TRPA1 (activator screening). Type of assay: cell-based.
Experimental: To detect the TRPA1 channel activity of a polypeptide consisting of the amino acid sequence shown by SEQ ID NO:2, the expression vector obtained in Example 1 above was transfected to animal cells, whereby the aforementioned protein was expressed.
Various test samples were added to CHO-K1 cells forced to is transiently express TRPA1 by the transfection operation of Example 2 above, and the resulting changes in intracellular calcium concentration were measured using FLIPR (Molecular Device).
To measure the changes in intracellular calcium concentration by FLIPR, the following pre-treatment was performed. First, an assay buffer for adding the fluorescent dye Fluo3-AM (DOJIN) to the cells, or for washing the cells just before performing the FLIPR assay, was prepared. To a solution prepared by adding 20 ml of 1M HEPES (pH 7.4) (Invitrogen) to 1000 ml of HBSS (Invitrogen) (hereinafter, HBSS/HEPES solution), 10 ml of a solution prepared by dissolving 710 mg of probenecid (Sigma) in 5 ml of 1N NaOH and then adding 5 ml of the HBSS/HEPES solution, was added and mixed, and this solution was used as the assay buffer. Next, 50 μg of Fluo3-AM was dissolved in 22 μl of DMSO (DOJIN), and an equal volume of 20% pluronic acid (Molecular Probes) was added and mixed, after which this mixture was added to 10.6 ml of the assay buffer supplemented with 105 μl of fetal bovine serum, whereby a fluorescent dye solution was prepared. […] After this pretreatment was performed, changes in intracellular calcium concentration after addition of the various test samples were measured with the FLIPR.
Compounds that activate a polypeptide consisting of the amino acid sequence shown by SEQ ID NO:2 (activators) were screened for. As an index of activation, calcium inflow in the cells was detected using a calcium-sensitive fluorescent reagent; specifically, the method described in Example 3 was used.
The test system of another assay is rat EC cells. In words: Serotonin secretion from rat small intestine EC cells. The assay is classed as cell-based. As to conditions: 45 minutes culture. The method, then:
A Wistar rat (male, 8-week-old) was decapitated and exsanguinated, after which it was dissected and laparotomized with scissors, and the small intestine was extirpated. The inside of the lumen of the extirpated small intestine was washed with physiological saline, and about 20 mL of Buffer A (70 mM NaCl, 5 mM KCl, 20 mM NaHCO3, 0.5 mM NaH2PO4, 50 mM HEPES (pH 7.2), 11 mM glucose, 3 mM EDTA, 0.5% BSA, 0.05 mM dithiothreitol, 1 mg/mL N-acetyl-L-cysteine) was injected, after which both ends were closed, and the small intestine was allowed to stand in 37° C. incubated HBSS for 10 minutes. Thereafter, the Buffer A in the lumen of the small intestine was discarded, about 20 mL of Buffer A was injected again, and the small intestine was allowed to stand in 37° C. incubated HBSS for 10 minutes. Again, the Buffer A in the lumen of the small intestine was discarded, fresh Buffer A was injected, and the small intestine was allowed to stand in 37° C. incubated HBSS for 20 minutes, after which the lumen content was recovered. […]
Serotonin secretion activity in EC cells prepared by the method described in Example 9-(3) was measured by a method modified from the method of Example 14 above. […]
The serotonin content in the supernatant was measured using a commercially available serotonin immunoassay kit (Beckman). […]

Assay [7] concerns guinea pig ileum. Kind of assay: Isolated guinea pig gut constriction (Magnus, ileum). The note with it: allyl isothiocyanate 300 μM; pizotifen maleate 10 μM, ramosetron hydrochloride 0.3 μM; vs vehicle.

“Also recorded” adds a separate entry of the source. Where a name gives a salt, the structure may show the parent alone. A value given as a limit tells only on which side of the number the result lay.

One may read the IC50 as the point on the concentration scale where inhibition reaches its midpoint. Regarding `N.N.N.N.N.N.N.N.N.N.N.N.N.N.[Cl-].[Cl-].[Cl-].[Cl-].[Cl-].[Cl-].[O-2].[O-2].[Ru+3].[Ru+3].[Ru+4]` [Ruthenium Red], the “inhibition of acrolein-induced serotonin secretion” value in the assay with RIN14B cells [1] (30 μM Ruthenium Red, acrolein 30 μM) came out at 73.0%. Moreover, the “suppression of cinnamic aldehyde-induced serotonin secretion” value in the assay with RIN14B cells [1] (Ruthenium Red 30 μM, cinnamic aldehyde 30 μM) is listed as “completely suppressed”. For the same molecule, in the assay with RIN14B cells [2] (30 μM Ruthenium Red, RIN14B cells), the “inhibition of activation by allyl isothiocyanate” value is reported as 90.9%. Further, the “inhibition of activator-induced elevation of fluorescence intensity” value in the assay on RIN14B cells [2] (added concurrently with allyl isothiocyanate, cinnamic aldehyde or acrolein) is “the elevation of fluorescence intensity was inhibited”. Also, the IC50 in assay [3] was 2.2 µM. For the same molecule, the “suppression of contraction upon stimulation with allyl isothiocyanate by TRPA1 inhibitor” value in the assay on guinea pig ileum [4] (Ruthenium Red 30 μM for 15 minutes, allyl isothiocyanate 300 μM, vs vehicle-applied specimen) is given as “about 84%”.

Usually EC50 stands for the concentration giving half of the maximal effect. On to `C=CC=O` [acrolein], for which the “serotonin secretion from RIN14B cells” value in the assay on RIN14B cells [1] is “serotonin secretion was promoted; also recorded: concentration-dependently promoted the release of serotonin”. Moreover, the “elevation of fluorescence intensity (calcium inflow) in RIN14B cells” value in the assay on RIN14B cells [2] (RIN14B cells) is given as “an elevation of fluorescence intensity was detected”. For the same molecule, in the assay with guinea pig ileum [4], the EC50 is 70.3 µM and the Action entry is listed as “Contraction”. Besides, the “concentration at which constrictive action was observed” value in the assay with guinea pig ileum [4] (tested at 10, 30, 100, 300 μM) is not below 10 µM. Also, the “elevation of fluorescence intensity in negative control cells” value in assay [5] was “none of these compounds produced an elevation of fluorescence intensity”. Further, the 50% effective concentration (EC50) in assay [6] came out at 7 µM. In assay [6] (CHO-K1 cells expressing human TRPA1, FLIPR, Fluo3-AM), the “change in intracellular calcium concentration” value is “responded specifically (elevation of intracellular calcium concentration)”.

As to `O=C/C=C/c1ccccc1` [cinnamic aldehyde], the “serotonin secretion from RIN14B cells” value with RIN14B cells [1] is given as “serotonin secretion was promoted; also recorded: concentration-dependently promoted the release of serotonin”. Also, the “elevation of fluorescence intensity (calcium inflow) in RIN14B cells” value in the assay on RIN14B cells [2] (RIN14B cells) is given as “an elevation of fluorescence intensity was detected”. The “serotonin secretion from rat EC cells” value in the assay on rat EC cells was “significant serotonin secretion promoting activity was observed; also recorded: promoted the release of serotonin from the EC cells”. Besides, in the assay with guinea pig ileum [4], the EC50 worked out at 88.3 µM and the Action result is given as “Contraction”. Besides, in assay [5], the “elevation of fluorescence intensity in negative control cells” value is listed as “none of these compounds produced an elevation of fluorescence intensity”.

For `Cn1cc(C(=O)[C@@H]2CCc3nc[nH]c3C2)c2ccccc21` [ramosetron hydrochloride], in the assay with guinea pig ileum [4], the “suppression of contraction upon stimulation with acrolein by serotonin receptor antagonists” value is reported as “about 84%”. Moreover, the “suppression of contraction upon stimulation with allyl isothiocyanate by serotonin receptor antagonists” value with guinea pig ileum [7] is given as “about 74%”.

With pizotifen maleate, the “suppression of contraction upon stimulation with acrolein by serotonin receptor antagonists” value in the assay with guinea pig ileum [4] is “about 74%”. In the assay on guinea pig ileum [7], the “suppression of contraction upon stimulation with allyl isothiocyanate by serotonin receptor antagonists” value was “about 44%”.
